Experimental data as given in patent US20100190737A1, “COMPOSITIONS COMPRISING INOSINE AND OROTIC ACID AND METHODS OF USE THEREOF FOR THE TREATMENT OF CERTAIN HEART CONDITIONS AND ENHANCEMENT OF WORK CAPACITY” (NUTRITIONAL RESEARCH GROUP LLC, priority 2009, published 2010).

Assays:
[1] = test system: rats with experimental aortic stenosis; experiment: Short term (7 day) experimental aortic stenosis: heart weight and swimming to exhaustion; format: in vivo, rat; conditions: EAS rats; for Heart Weight: intragastric daily
Text: There are two 7 day experiments in this portion of the study; a preliminary 7 day study with 54 rats in 9 groups (6 rats per group) to determine optimal dosage levels for the separate inosine or potassium orotate ingredients for farther experimentation by determination of maximal heart weight development and work capacity; and then a study with 30 rats in 5 groups (6 rats per group) using the optimal single ingredient dosage levels for comparison with the results of a composition of the ingredients. All compounds were administered intragastrically through a tube after being dissolved in approximately 1 ml of water.
A single control group received a sham operation, while the rest of the groups received experimental aortic stenosis (“EAS”) operations (all according to Beznak in Journal Physiol. (Lond.) 120.23P, 1953 as modified by Kogan, Bull eksper. Biol. Med., 26:112, 1961 and then the other 13 groups received various treatments and dosages of inosine or potassium orotate or a composition of the two ingredients after the optimal inosine and potassium orotate dosages were determined. All animals were tested at the beginning and end of the experiment for swimming to exhaustion times with a 7.5% body weight load attached to their tails.
Sach compound, i.e., inosine and potassium orotate, was administered at different doses and the level of heart hypertrophy and work capacity was observed. Each of the compounds was evaluated in four doses: 12.5 mg/kg, 25 mg/kg, 50 mg/kg and 100 mg/kg body weight. Six animals were used in each group for inosine [4 groups] and potassium orotate [4 groups] plus the one control group (sham operated, no treatment); 54 animals in total.
Thirty white rats were divided into 5 groups (6 animals in each group). Group I was a sham-operated control group, Group II animals with experimental aortic stenosis but were untreated, Groups III, IV & V animals, all with experimental aortic stenosis received by an intragastric tube each day, either inosine (25 mg/kg body weight), potassium orotate (50 mg/kg body weight) or an composition of inosine (25 mg/kg body weight) plus potassium orotate (50 mg/kg body weight), respectively.

mice = experiment: Short term (14 day) work capacity: swimming lengths within 30 minutes, hepatic glycogen; format: in vivo, mouse; conditions: for Swimming lengths / increase in number of swimming lengths: 14 days
Description: Seventy two animals (mice) were divided into 12 groups of 6 animals each; a control group (untreated) and 11 test groups that were intragastrically administered varying daily doses of inosine, potassium orotate or an inosine plus potassium orotate combination (the “combination”) for 14 days. […] The swimming exercise consisted of forcing the animals to perform repetitive swimming in a three meter long channel until exhaustion. The level of exhaustion was determined by a count of the number of swimming lengths which each animal did within 30 minutes. A lower number of swimming lengths indicated a greater level of exhaustion, whereas a higher number of lengths indicated a greater work capacity.

white rats = experiment: Long-term (6 months) work capacity in trained and non-trained rats; conditions: untrained rats
Description: Seventy two white rats were randomly placed in 6 groups (12 animals each), to test the effectiveness of training and to determine morphological and physiological alterations in the rats. In Group I, control rats were nontrained and not administered either of inosine or the combination of inosine and orotate; Group II comprised non-trained rats to which were administered inosine (25 mg/kg/body weight; Group III comprised non-trained rats to which were administered the combination of inosine plus potassium orotate (25 mg/kg/body weight of inosine and 50 mg/kg/body weight potassium orotate); Group IV comprised trained rats that were not administered either of inosine or the combination of inosine and orotate; Group V comprised trained rats to which was administered inosine alone (25 mg/kg/body weight), and Group VI comprised trained rats to which was administered the combination of inosine plus potassium orotate (25 mg/kg/body weight of inosine and 50 mg/kg/body weight potassium orotate).
Training of rats consisted of their forced swimming in a water bath (28-30° C.) with a weight fixed on their backs (7.5% of the rat body weight). During the first two weeks the animals swam daily for 5-10 minutes, after which we determined the individual maximum time of swimming to exhaustion (i.e. maximum work capacity) for each animal and then calculated the mean maximum time for each group. After 2 weeks these initial maximum work capacity values were used for planning and performing additional swimming training.
The functional condition of the rats at rest was estimated from their work capacity (maximum swimming time), body weight increase, EKG tests, oxygen consumption and sodium and potassium levels in the myocardium in a relatively quiet state. The morphological state of the heart and other viscera were rated from their absolute and relative weights, and also from histological and histochemical examinations of the myocardium. Also determined were the amounts of glycogen in the m. quadriceps (quadriceps group of muscles) of the hip, the myocardium and the liver. All the quantitative results obtained were processed with conventional statistical procedures.

patients with arrhythmia = experiment: Case studies: patients with arrhythmia given inosine/magnesium orotate capsules; format: in vivo, human; conditions: Example 5
Text: Another cardiac condition prevalent in the population is arrhythmia. Cardiac arrhythmia is characterized by an abnormal rate of cardiac muscle contractions. The rate of contractions may be too slow, too fast, too frequent or too infrequent. The present pharmaceutical composition stabilizes the cardiac arrhythmia.

[2] = test system: chinchilla rabbits with experimental myocardial infarction; experiment: Experimentally-induced myocardial infarction (coronary artery ligation); format: in vivo, rabbit; conditions: for NN of Animals With Necrosis: of 10 animals; for EKG Q: oral 100 mg/kg BW of each ingredient daily
Description: Histological, light microscopic methods of investigation have been employed to study the zone of necrosis, perinecrotic zone and myocardium regions spaced from the time of infarction by 7 and 14 days after the infarction event. Dynamic electrocardiographic observation over the animals was carried out during the first day and during the following 7 and 14 days. The study of the total cross-sectional patterns of a rabbit's heart has made it possible to precisely define these zones. The first Group of 10 animals was sham-operated without treatment (Group I, positive control-Intact, no MI). […] Group II animals were without treatment (negative control-MI Control).

[3] = seventh day, inosine 25 mg/kg BW, potassium orotate 50 mg/kg BW, alone or together
[4] = seventh day, inosine 25 mg/kg BW, potassium orotate 50 mg/kg BW, alone or together, listed as orotate

Molecule O=C([O-])c1cc(=O)[nH]c(=O)[nH]1.[K+] [potassium orotate] has a swimming time ([1]; day 7, 12.5 mg/kg intragastrically, EAS control 15±5.0, sham 62±5.0) of 18 ± 4.0 min, a swimming time ([1]; day 7, 25 mg/kg) of 22 ± 3.0 min and a swimming time ([1]; day 7, 50 mg/kg) of 32 ± 3.0 min. The swimming time ([1]; day 7, 100 mg/kg) was 30 ± 3.0 min, the relative heart weight ([1]; seventh day, 12.5 mg/kg, EAS control 400±8.9, sham 300±5.0) was 420±6.0 mg/100 g. body weight and the relative heart weight ([1]; seventh day, 25 mg/kg) was 440±11 mg/100 g. body weight. The relative heart weight ([1]; seventh day, 50 mg/kg) was 460±16 mg/100 g. body weight, the relative heart weight ([1]; seventh day, 100 mg/kg) was 465±15 mg/100 g. body weight and the “swimming time” value [1, 3] was 33 ± 4 min. The “Heart Weight” value [1, 3] was 460±16 mg/100 gr BW, the “Heart Weight” value [1, 4] was 460 ± 16 mg/100 gr BW and the “swimming time” value [1, 4] was 33 ± 4.0 min. The Swimming lengths (mice; 25 mg/kg BW) was 40.2, the “increase in number of swimming lengths” value (mice; 25 mg/kg/body weight daily) was 60.7% and the Swimming lengths (mice; 50 mg/kg BW) was 45.6. For the same molecule, the “increase in number of swimming lengths” value (mice; 50 mg/kg/body weight daily) was 82.2%, the Swimming lengths (mice; 100 mg/kg BW) was 56.3 and the “increase in number of swimming lengths” value (mice; 100 mg/kg/body weight daily) was 125%. For the same molecule, the Swimming lengths (mice; 200 mg/kg BW) was 44.6, the “increase in number of swimming lengths” value (mice; 200 mg/kg/body weight daily) was 78.3% and the “mean decrease of hepatic glycogen stores during the swimming exercise” value (mice; controls 67.5% from baseline) was 18.5%. The “increased hepatic glycogen content” value (mice; inosine 25 mg/kg, potassium orotate 50 mg/kg, or combination) was 18%, the “Heart weight after 6 mo.” value (white rats) was 304 ± 9.2 mg/100gk BW and the “Oxygen consumption End of experiment” value (white rats) was 27.0 ± 0.60 ml/min/kg BW. For the same molecule, the “Swimming time Before” value (white rats) was 72 ± 4.0 min, the “Glycogen in m. quadriceps, After work” value (white rats; end of experiments) was 488 ± 15.0 and the “Glycogen in m. quadriceps, In rest” value (white rats; end of experiments) was 860 ± 16.0. The “Swimming time After 6 mo.” value (white rats; INO 25 mg/kg, PO 50 mg/kg) was 80 ± 4.2 min.

COCCc1ccc(OCC(O)CNC(C)C)cc1 (centres unmarked) [Toprol] was tested, and the “arrhythmia episodes per week” value (patients with arrhythmia; 50 mg Toprol daily, one month, from 3-4 times weekly) was 2-3 per week.

In the case of CCC(=O)O[C@@H](O[P@](=O)(CCCCc1ccccc1)CC(=O)N1C[C@H](C2CCCCC2)C[C@H]1C(=O)[O-])C(C)C.[Na+] [Monopril], the “blood pressure (systolic over diastolic)” value (patients with arrhythmia; 10 mg Monopril with 50 mg Toprol daily, one month, from 165/105) is reported as 150/95 and the “blood pressure (systolic over diastolic)” value (patients with arrhythmia; Monopril increased to 20 mg) is reported as 145/90.

For O=C(O)c1cc(=O)[nH]c(=O)[nH]1 [orotic acid], the “Thickness of Left Ventricular Wall” value ([2]; Day 7) was 5.0 ± 0.61 mm, the “EKG QRS” value ([2]; Day 7, 100 mg/kg BW each) was 0.07 ± 0.003 s and the “EKG R” value ([2]; Day 7, 100 mg/kg BW each) was 4.2 ± 0.030 mm. For the same molecule, the “NN of Animals With Necrosis” value ([2]; Day 7, MI control 10) was 5, the “EKG Q” value ([2]; Day 7) was 1.0 ± 0.02 mm and the “EKG QRS” value ([2]; Day 14) was 0.06 ± 0.016 s. For the same molecule, the “EKG R” value ([2]; Day 14) was 4.4 ± 0.27 mm, the “Thickness of Left Ventricular Wall” value ([2]; Day 14) was 5.4 ± 0.23 mm and the “NN of Animals With Necrosis” value ([2]; Day 14, MI control 3) was 0. For the same molecule, the “EKG Q” value ([2]; Day 14) was 0.6 ± 0.05 mm, the reduction in necroses ([2]; administered individually, 100 mg/kg) was 50% and the “hemorrhages or infiltration in the infarction zone” value ([2]; by the fourteenth day) was “virtually had no hemorrhages or infiltration in the infarction zone”. The “restoration of EKG readings” value ([2]; by the seventh experimental day) was “nearly a complete restoration of the voltage of EKG waves and of the systolic index”.
